Assay results reported in patent US20070098685A1, “Methods and kits to treat chronic inflammatory immune diseases by administering a proteasome inhibitor and an interleukin 2 receptor agonist” (priority 2005, published 2007).
Like-named read-outs stand apart in the source and are kept apart here.

Columns and labels:
[1] = in vivo; cited from earlier work
[2] = cited from earlier work
[3] = molecular target: T1, high affinity IL2 receptor (Homo sapiens, UniProt P01589+P14784+P31785); conditions: high affinity IL2 receptor on activated T cells; cited from earlier work
T1 sequence (P01589 22-272): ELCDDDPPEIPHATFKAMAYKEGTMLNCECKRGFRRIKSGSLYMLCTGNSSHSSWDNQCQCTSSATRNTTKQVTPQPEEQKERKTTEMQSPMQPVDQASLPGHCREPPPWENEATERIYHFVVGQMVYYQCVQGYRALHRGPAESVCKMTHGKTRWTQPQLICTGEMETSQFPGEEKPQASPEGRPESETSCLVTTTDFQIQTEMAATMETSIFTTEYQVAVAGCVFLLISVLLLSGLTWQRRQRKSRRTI
T1 sequence (P14784 27-551): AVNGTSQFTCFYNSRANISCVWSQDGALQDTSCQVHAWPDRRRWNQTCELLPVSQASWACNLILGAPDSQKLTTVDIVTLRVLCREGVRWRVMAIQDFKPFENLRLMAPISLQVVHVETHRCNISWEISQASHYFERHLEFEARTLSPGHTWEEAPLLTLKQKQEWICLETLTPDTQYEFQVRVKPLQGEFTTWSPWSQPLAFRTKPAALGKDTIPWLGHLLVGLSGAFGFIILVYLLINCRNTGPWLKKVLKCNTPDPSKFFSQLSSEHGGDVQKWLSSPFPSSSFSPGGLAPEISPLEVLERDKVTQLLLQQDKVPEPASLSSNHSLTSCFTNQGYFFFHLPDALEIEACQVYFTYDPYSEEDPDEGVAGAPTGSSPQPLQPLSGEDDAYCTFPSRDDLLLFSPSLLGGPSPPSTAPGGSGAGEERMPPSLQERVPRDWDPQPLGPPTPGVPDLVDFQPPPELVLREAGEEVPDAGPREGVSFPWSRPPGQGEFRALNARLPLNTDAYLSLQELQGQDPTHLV
T1 sequence (P31785 23-369): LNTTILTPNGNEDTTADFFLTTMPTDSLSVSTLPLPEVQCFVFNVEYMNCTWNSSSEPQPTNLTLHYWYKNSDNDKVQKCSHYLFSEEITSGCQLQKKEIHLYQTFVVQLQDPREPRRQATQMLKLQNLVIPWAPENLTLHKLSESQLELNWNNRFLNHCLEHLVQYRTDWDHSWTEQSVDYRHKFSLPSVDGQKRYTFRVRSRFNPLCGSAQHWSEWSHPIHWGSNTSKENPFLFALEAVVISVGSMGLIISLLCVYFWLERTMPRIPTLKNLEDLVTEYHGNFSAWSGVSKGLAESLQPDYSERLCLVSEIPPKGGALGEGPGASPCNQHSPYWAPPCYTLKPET

[4] = animal models and human subjects; cited from earlier work
[5] = system: blood cell proteasome; conditions: rats, cited from earlier work
[6] = Animal models of immune disease; type: in vivo; conditions: 0.03 mg/kg dose
Method: Without being limited by any particular theory or mechanism, a preferred embodiment of the method is administering systemically a dose of a proteasome inhibitor that gives partial inhibition (20-30%) of red blood cell proteasome activity. In human subjects, a Velcade™ PS-341dose of 0.4 mg/m^2 gave 30% inhibition of blood cell proteasome activity after a single intravenous bolus injection; (Orlowski et al. 2002 J. Clin. Oncol. 20 pp. 4420-27).

[7] = humans, cited from earlier work
[8] = system: blood cell proteasome; conditions: cited from earlier work
[9] = system: CD4Th1 T cell mediated inflammation; test: Delayed type hypersensitivity (DTH) reaction in mice, ear swelling after topical DNFB; type: in vivo; conditions: PS 341 0.003 to 0.01 or 0.03 mg/kg co-administered with IL2 (4 ng), FIG. 2
Excerpt: FIG. 1 is a drawing of a protocol for induction and assay of delayed-type hypersensitivity (DTH) in mice, as a function of time from left to right. Groups of experimental animals are sensitized on two successive days (at time points indicated as days—5 and —4 in the Figure) by application of 2,4-dinitro-1-fluorobenzene (DNFB; obtained from Sigma, St. Louis, Mo) to footpads, the DNFB dissolved in acetone or acetone/olive oil. After an additional day (at time indicated as day—3) proteasome inhibitor PS 341 and interleukin 2 (IL 2) are administered by intraperitoneal injection (IP). Animals are challenged, elicited for a T cell response, with DNFB topically applied to a target tissue such as ears at a point in time […] after administration, the point in time indicated as day 0. Swelling of the target, i.e., ear marker organ or tissue is measured at subsequent time points, exemplified as day 1 in the Figure.
Groups of experimental and control mice are administered an IL2 dose which is a constant amount (4 ng) in each group with the exception of a group of control animals not administered IL2, and are administered an amount of PS 341 that is varied (from 0.003 to 0.01 or 0.03 mg/kg total weight) in each of the various experimental groups. A control group of mice is administered IL 2 alone (no PS 341). […]
Inflammation was measured by ear swelling after applying topical DNFB. […]

[10] = cited from earlier work; remark: listed apart in the source
[11] = human subjects, 0.4 mg/m^2; cited from earlier work

Q: With “des ala-1 serine 125 human interleukin 2 [IL2]” as the compound, how does the half-life [1] read?
A: Its half-life is 1.5 h.

Q: What about the tolerability ([2]; intravenous administration for extended periods) of the same compound?
A: The tolerability was “well tolerated”.

Q: And the tolerability ([2]; low doses (<20 million Units), repeated daily dosing for many weeks)?
A: The tolerability was “well tolerated”.

Q: And the Kd [3]?
A: Its Kd is 0.01 nM.

Q: Which results are given for `CC(C)C[C@H](NC(=O)[C@H](Cc1ccccc1)NC(=O)c1cnccn1)B(O)O` [PS-341, Pyz Phe boro leu; Pyz2,5 pyraninecarboxylic acid]?
A: toxicity [4]: free from substantial toxicity; partial proteasome inhibition ([5]; 0.03 mg/kg intravenous bolus dose): 20-30%; maximal blood cell proteasome inhibition ([5]; 0.3 mg/kg intravenous bolus, one hour after dosing): 80%; therapeutic effect [6]: not effective therapeutically; tolerability [6]: well tolerated; half-life [7]: approximately 24 hours; half-life ([7]; listed as Velcade): 24 h; inhibition of blood cell proteasome activity ([8]; human subjects, 0.4 mg/m^2, single intravenous bolus injection): 30%; maximal blood cell proteasome inhibition ([8]; humans, 1.38 mg/m^2 intravenous bolus, one hour after dosing): 80%; inhibition of DTH (ear swelling) [9]: increasing inhibition of DTH; adverse events ([10]; human studies, doses that are 1 mg/m^2): adverse events are observed; serious adverse events ([10]; human subjects, dose that causes partial inhibition of blood proteasome activity): does not cause serious adverse events; adverse events ([10]; human subjects, doses less than or equal to 0.4 mg/m^2, multiple administration): No adverse events were observed; therapeutic efficacy [11]: no significant therapeutic efficacy
